Reference: patent publication US11746124B2, “Chemoselective thiol-conjugation with alkene or alkyne-phosphonamidates” (FORSCHUNGSVERBUND BERLIN E.V., priority 2016, dated 2023)

Key:
[1] = Second order rate constant of glutathione addition to EDANS phosphonamidate, fluorescence HPLC; conditions: 0.1 mM amidate, 0.1 mM glutathione, 50 mM NH4HCO3, 1 mM EDTA, pH 8.5, 1% DMF
Protocol: To study the kinetics of the thiol addition to alkyne-phosphonamidates at low concentrations, a fluorescent EDANS-based phosphonamidate was synthesized as described in chapter 1.1. Addition of glutathione as a model substrate was probed over time by fluorescence HPLC. Peak integration and normalization to unconjugated EDANS as an internal standard was applied to determine the second order rate constant of the reaction. A second order rate constant of 37.32±0.41 I/mol*s was measured.
Glutathione addition to the EDANS-phosphonamidate was conducted at a final concentration of 0.1 mM amidate, 0.1 mM glutathione and 0.02 mM EDANS as an internal standard in 50 mM NH4HCO3-buffer containing 1 mM EDTA at pH 8.5 with 1% DMF. 2.5 μl of a 20 mM stock solution of EDANS-phosphonamidate in DMF was premixed with 488 μl buffer and 5 μl of a 2 mM stock solution of EDANS in a 1:1 mixture of DMF and buffer. The reaction was started by the addition of 5 μl of a 10 mM solution of glutathione in buffer. 10 μl samples were drawn at 0, 15, 30, 60, 120, 240 and 480 minutes and acidified with 190 μl 10 mM NaOAc-Buffer (pH 5.0) and subjected to fluorescence HPLC analysis.

[2] = Stability of a vinyl phosphonamidate to different pHs by 31P-NMR in aqueous buffers; assay type: physicochemical; conditions: room temperature
Text: In a first experiment, Ethyl-N-phenyl-P-vinyl-phosphonamidate was chosen to measure stability.

[3] = Hydrolytic decay of the GSH-phosphonamidate conjugate in aqueous buffer, 31P NMR over 24 hours; assay type: physicochemical
Protocol: The conjugate could be isolated by semipreparative HPLC under basic conditions as a diastereomeric mixture in a yield of 61%. Having reasonable quantities of this water soluble phosphonamidate-conjugate in hand, studies could be performed in order to determine the hydrolytic properties of the phosphorus-nitrogen bond. For these studies a […] in aqeuous buffer was prepared and the hydrolysis of the phosphonamidate was characterized by monitoring the decay of the conjugate against the standard by means of ^31P NMR over 24 hours.

[4] = Rate of glutathione addition to ethyl-N-phenyl alkynyl phosphonamidate, HPLC-UV; conditions: reaction with glutathione, after 15 min at pH 8.5
Protocol: The rate of the reaction was determined by HPLC. Glutathione was added to a solution of ethyl-N-phenyl alkynyl phosphonamidate in aqueous buffer at slightly basic pH. The reaction was stopped after several time points by the addition of an acidic buffer and analyzed by HPLC-UV, referring to inosine as an internal standard. FIG. 2 refers to the consumption of ethyl-N-phenyl alkynyl phosphonamidate in the reaction with glutathione at pH 8.5. HPLC UV traces were taken at different time points. Experiment was performed in triplicate.

## C#CP(=O)(Nc1ccc(C(=O)NCCNc2cccc3c(S(=O)(=O)O)cccc23)cc1)OCC (stereo not drawn) [EDANS-based phosphonamidate, 5-((2-(O-Ethyl-P-ethynyl-phosphonamidato-N-benzoyl)ethyl)amino)naphthalene-1-sulfonic acid]
[1]
  second order rate constant of the thiol addition: 37.32±0.41 I/mol*s

## C=CP(=O)(Nc1ccccc1)OCC (stereo not drawn) [Ethyl-N-phenyl-P-vinyl-phosphonamidate]
[2]; aqueous buffers
  stability to different pHs over time: stable over a broad pH range
[2]; strong acidic conditions
  stability under strong acidic conditions: P—N-bond cleavage occurred

## CCOP(=O)(/C=C\SC[C@H](NC(=O)CC[C@H](N)C(=O)O)C(=O)NCC(=O)O)Nc1ccccc1 (stereo partly drawn) [GSH-phosphonamidate conjugate, (Ethyl-N-phenyl-P-ethenyl-phosphonamidate)-S-glutathion conjugate]
[3]; slight acidic conditions, 150 mM NH4OAc-buffer, pH 4.76
  hydrolytic decay of the conjugate: stable over the duration of the measurement
[3]; strong acidic conditions, 1 M HCL, pH 0.36
  hydrolytic decay of the conjugate: rapid decomposition

## C#CP(=O)(Nc1ccccc1)OCC (stereo not drawn) [alkynyl phosphonamidate, Ethyl-N-phenyl-P-ethynyl-phosphonamidate]
[4]
  conversion of the alkynyl phosphonamidate starting material: more than 95%
